Experiments:
Echinochloa crus-galli [1] = test: Herbicidal activity against Echinochloa crus-galli (barnyard grass) assessed as inhibition of root length after 5 days at 25 degC; format: functional, organism-based; conditions: 120 h
Oryza sativa = test: Phytotoxicity against Oryza sativa (rice) assessed as inhibition of root length after 7 days at 25 degC; format: organism-based; conditions: 168 h
Echinochloa crus-galli [2] = test: Herbicidal activity against Echinochloa crus-galli (barnyard grass) assessed as inhibition of root length at 64 uM after 5 days at 25 degC; format: functional; conditions: 120 h
[3] = Phytotoxicity against Oryza sativa (rice) assessed as inhibition of root length at 64 uM after 7 days at 25 degC; format: organism-based; conditions: whole organism (rice plants, root growth)

| SMILES | IC50 (Echinochloa crus-galli [1]) | IC50 (Oryza sativa) | inhibition at 64 µM (Echinochloa crus-galli [2]) | inhibition at 168 h, 64 µM [3] |
| --- | --- | --- | --- | --- |
| O=C1COc2ccccc2N1O | 360 µM | – | – | – |
| COc1ccc2c(c1)OCC(=O)N2O | 819 µM | – | – | – |
| O=C1COc2c(Cl)cc(Cl)cc2N1O [6,8-diCl-D-DIBOA] | 281 µM | 3320 µM | – | – |
| O=C1COc2ccc(C(F)(F)F)cc2N1O [6-CF3-D-DIBOA] | 160 µM | 264 µM | – | – |
| O=C1COc2ccc(Cl)cc2N1O [6-Cl-D-DIBOA] | 8 µM | 3 µM | – | – |
| O=C1COc2ccc(F)cc2N1O [6-F-D-DIBOA] | 2.8 µM | 9 µM | – | – |
| COc1ccc2c(c1)N(O)C(=O)CO2 [6-MeO-D-DIBOA] | 159 µM | – | – | – |
| COC(=O)c1ccc2c(c1)N(O)C(=O)CO2 [6-MeOCO-D-DIBOA] | 229 µM | – | – | – |
| O=C1COc2c(ccc(F)c2F)N1O [7,8-diF-D-DIBOA] | 52 µM | 159 µM | – | – |
| COc1ccc2c(c1OC)OCC(=O)N2O [7,8-diMeO-D-DIBOA] | 690 µM | – | – | – |
| O=C1COc2cc(F)ccc2N1O [7-F-D-DIBOA] | 130 µM | 171 µM | – | – |
| COC(=O)c1ccc2c(c1)OCC(=O)N2O [7-MeOCO-D-DIBOA] | 1640 µM | – | – | – |
| O=C1COc2c(Cl)cccc2N1O [8-Cl-D-DIBOA] | 44 µM | 501 µM | 60% | 10% |
| O=C1COc2c(F)cccc2N1O [8-F-D-DIBOA] | 69 µM | 185 µM | – | – |
| CCC(=O)Nc1ccc(Cl)c(Cl)c1 [PROPANIL] | – | 213 µM | – | – |
